Test results: patent publication US20130035361A1, “USE OF ERGOTHIONEINE AS A PRESERVATIVE IN FOODS AND BEVERAGES” (priority 2007, published 2013)
Values after ≈ are worked out from the molar mass of the structure shown.

Legend:
[1] = ERGO concentration found in Pinot noir wines after 18 months of bottle storage; format: physicochemical; conditions: for ERGO Found: Pinot noir wine, after 18 months bottle storage
Text: According to the invention, sulfur dioxide was replaced in whole or in part with L-ergothioneine in Pinot noir wines at bottling.

liver tissue of rats = conditions: exogenous L-ergothioneine; cited from earlier work
[2] = Stability over time in food and beverages; format: physicochemical; conditions: stored over a period of several years
[3] = per one unit of L-Ergothioneine; cited from earlier work
[4] = test system: LPO formation in mouse liver; conditions: cited from earlier work
[5] = cited from earlier work

For O=S=O [SO2, sulfur dioxide, reference compound], the “ERGO Found” value ([1]; SO2 added 30 mg/L, ERGO added 0 mg/L at bottling) was 7.3 mg/L and the “ERGO Found” value ([1]; SO2 added 70 mg/L, ERGO added 0 mg/L at bottling) was 7.5 mg/L.
For C[N+](C)(C)[C@@H](Cc1c[nH]c(=S)[nH]1)C(=O)[O-] [L-ergothioneine], the “lipid peroxidation by toxic compounds” value (liver tissue of rats) is given as “prevent lipid peroxidation”, the stability over time [2] is given as “very stable over time” and the “units of Vitamin E equivalent to one unit” value [3] is given as ~7000 units of Vitamin E. The “ERGO Found” value ([1]; SO2 added 0 mg/L, ERGO added 10 mg/L at bottling) was 8.8 mg/L, the “ERGO Found” value ([1]; SO2 added 0 mg/L, ERGO added 30 mg/L at bottling) was 29.8 mg/L and the “ERGO Found” value ([1]; SO2 added 0 mg/L, ERGO added 50 mg/L at bottling) was 55.4 mg/L. The “ERGO Found” value ([1]; SO2 added 0 mg/L, ERGO added 70 mg/L at bottling) was 81.2 mg/L, the “presence of ergothioneine in the wine after storage” value ([1]; Pinot noir wines, SO2 replaced in whole or in part at bottling, after 18 months of storage) was “still present in the wine” and the LPO formation [4] was “inhibited LPO formation”. The “decomposition of existing LPO” value [4] was “enhanced the decomposition of existing LPO”, the water solubility [5] was “readily water soluble” and the solubility limit ([5]; room temperature) was 900 mM (≈ 206 mg/mL).
